Common to all, as to experiment: NCI tumour cell line growth inhibition, 48 h
The test system of assay [1] is 786-0 renal.
Assay [2] relates to A498 renal.
The test system of assay [3] is MCF7 breast.
For assay [4], the system named is MDA-MB-231 breast.
Assay [5] deals with NCI-H226 lung.
Assay [6] has as its system OVCAR-8 ovarian.
The subject of assay [7] is SK-MEL-2 melanoma.
The subject of assay [8] is SK-MEL-28 melanoma.
Assay [9] relates to TK-10 renal.
Assay [10] deals with DU-145 prostate.

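These data come from cells grown in 96-well plates and exposed to compound for 48 hours at five concentrations. Abbreviation: GI50, concentration required for 50% inhibition of growth. At the TGI there is no net growth.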

Turning to `CCN(CC(COc1ccc2c(c1)[n+]([O-])nc(N)[n+]2[O-])OC(C)=O)C(C)=O` (centres undefined), the TGI in assay [1], in assay [2], in [3], in assay [4], in [5] and in [6] was greater than 100 µM each time. Also, the TGI in assay [7], in [8] and in assay [9] was greater than 100 µM throughout.
As to `Oc1cc2ccccc2cc1-c1n[nH]c(=S)n1-c1ccc(Cl)cc1`, the GI50 in [1] is 16.1 µM; in assay [10] it was 31.2 µM; in [4], 8.88 µM; in assay [5], 23.7 µM; in [6], 38.4 µM; in assay [7], 12.5 µM. Besides, the GI50 in assay [8] was 36.4 µM; in assay [9], 18.9 µM. Besides, the TGI in [1] was 49.8 µM; in assay [10], greater than 100 µM; in assay [4], 38.3 µM; in assay [5] it was 85 µM; in assay [6], greater than 100 µM; in assay [7], 39.3 µM. Also, the TGI in assay [8] was greater than 100 µM; in [9] it was 63 µM.
Turning to `CC([O-])C(=O)[O-].NCC1CCC1CN.[Pt+4]` (centres undefined), the GI50 is greater than 10 µM in assay [1]; greater than 10 µM in [10]; 6.89 µM in assay [3]; greater than 10 µM in assay [4]; greater than 10 µM in assay [5]; greater than 10 µM in assay [6]. The GI50 in assay [7], in [8] and in assay [9] was greater than 10 µM in each case. Moreover, the TGI in assay [1], in assay [10], in assay [3], in assay [4], in [5] and in assay [6] was greater than 10 µM throughout. In addition, the TGI in [7], in assay [8] and in [9] was greater than 10 µM throughout.
As to `O=C1C(Cl)=C(Nc2cccc(O)c2)C(=O)N1c1cccc(Cl)c1Cl`, the GI50 is 18.2 µM in assay [1]; 22.7 µM in [10]; 13.7 µM in [3]; 12.3 µM in assay [4]; 15.1 µM in assay [6]; 15.2 µM in assay [7]. Moreover, the GI50 is 24.4 µM in [8] and 20.2 µM in assay [9]. The TGI worked out at 63.2 µM in assay [1]; 48 µM in assay [10]; 42.7 µM in [3]; 34.2 µM in assay [4]; 30.4 µM in assay [6]; 35.9 µM in assay [7]. Also, the figures for the TGI in assay [8] and in assay [9] were greater than 100 µM and 80 µM, respectively.
On to `CCCN1CCN(c2ccc3nc(-c4ccc5nc(-c6ccc(OCC)c(OCC)c6)[nH]c5c4)[nH]c3c2)CC1`, for which the GI50 is 0.986 µM in assay [1]; 0.538 µM in [2]; 0.436 µM in assay [10]; 1.21 µM in [4]; 0.495 µM in assay [5]; 0.451 µM in [6]. The GI50 in assay [7] is 0.508 µM; in assay [8] it was 0.755 µM; in assay [9], 1.3 µM. The TGI amounted to 2.33 µM in assay [1]; 1.82 µM in assay [2]; 1.75 µM in assay [10]; 2.81 µM in assay [4]; 2.06 µM in assay [5]; 2.16 µM in assay [6]. Moreover, the TGI in assay [7] was determined as 2.01 µM; in assay [8] it was 2.19 µM; in assay [9], 4.13 µM.
Regarding `O=CC1(C2(C=O)c3ccccc3-c3ccccc32)c2ccccc2-c2ccccc21`, the GI50 in assay [1] was 2.16 µM; in assay [2], 2.33 µM; in assay [10], 2.29 µM; in assay [4], 2.8 µM; in assay [5] it was 3.3 µM; in [6] it was 2.2 µM. Also, the GI50 in assay [7] was 2 µM; in assay [8] it was 1.72 µM; in [9], 2.63 µM. The TGI is 5.34 µM in [1]; 5.36 µM in [2]; 5.83 µM in [10]; 6.98 µM in assay [4]; 7.24 µM in [5]; 6.08 µM in assay [6]. Moreover, the results for the TGI in assay [7], in [8] and in assay [9] were 4.82 µM, 3.38 µM and 5.51 µM, respectively.
Regarding `C=C1C(=O)OC2/C=C(\C)C3OC3/C=C(/C(=O)OC)C(OC(C)=O)C(OC(=O)C(C)(O)C(C)OC(C)=O)C12` (centres undefined), the TGI came out at 8.27 µM in assay [1]; 11.5 µM in [2]; 2.67 µM in assay [3]; 22.6 µM in [4]; 15.7 µM in [5]; 6.92 µM in [6]. The TGI in assay [7] was determined as 20.2 µM; in [8] it was 6.14 µM; in [9], 4.21 µM.

Values taken from PubChem BioAssay (NCI).
